{
  "source": "patent US10118935B2",
  "about": "“Melampomagnolide B dimers” (priority 2014, dated 2018)",
  "key": {"[1]": {"tested_on": "HL-60(TB)"}, "[2]": {"tested_on": "MOLT-4", "assay": "NCI 60 cell line five dose, Leukemia"}, "[3]": {"tested_on": "MALME-3M", "assay": "NCI 60 cell line five dose, Melanoma", "settings": "MAL1ME-3M"}, "[4]": {"tested_on": "MDA-MB-435", "assay": "NCI 60 cell line five dose, Melanoma"}, "[5]": {"tested_on": "SK-MEL-28", "assay": "NCI 60 cell line five dose, Melanoma"}, "[6]": {"tested_on": "UACC-257", "assay": "NCI 60 cell line five dose, Melanoma"}, "[7]": {"tested_on": "SNB-75", "assay": "NCI 60 cell line five dose, CNS Cancer"}, "[8]": {"tested_on": "U251", "assay": "NCI 60 cell line five dose, CNS Cancer"}, "[9]": {"tested_on": "COLO 205", "assay": "NCI 60 cell line five dose, Colon Cancer"}, "[10]": {"tested_on": "HCT-15", "assay": "NCI 60 cell line five dose, Colon Cancer"}, "[11]": {"tested_on": "ACHN", "assay": "NCI 60 cell line five dose, Renal Cancer"}},
  "note": "Like-named read-outs stand apart in the source and are kept apart here.",
  "data": [
    {"smiles": "C=C1C(=O)O[C@H]2[C@H]1CC/C(COC(=O)NCCCCNC(=O)OC/C1=C/CC[C@@]3(C)O[C@H]3[C@H]3OC(=O)C(=C)[C@@H]3CC1)=C\\CC[C@@]1(C)O[C@@H]21", "note": "[JVM 3-54, bis(((1aR,7aS,10aS,10bS,E)-1a-Methyl-8-methylene-9-oxo-1a,2,3,6,7,7a,8,9,10a,10b-decahydrooxireno[2′,3′:9,10]cyclodeca[1,2-b]furan-5-yl)methyl)butane-1,4-diyldicarbamate]", "values": [
      {"measurement": "GI50", "setting": "[1]", "value": 0.256, "unit": "µM"},
      {"measurement": "TGI", "setting": "[1]", "value": 1.08, "unit": "µM"},
      {"measurement": "Percent Growth", "setting": "[1]; Log10 Concentration −4.0", "value": "−38", "unit": "%"},
      {"measurement": "Percent Growth", "setting": "[1]; Log10 Concentration −5.0", "value": "−41", "unit": "%"},
      {"measurement": "Percent Growth", "setting": "[1]; Log10 Concentration −6.0", "value": 1, "unit": "%"},
      {"measurement": "Percent Growth", "setting": "[1]; Log10 Concentration −7.0", "value": 84, "unit": "%"},
      {"measurement": "Percent Growth", "setting": "[1]; Log10 Concentration −8.0", "value": 962, "unit": "%"},
      {"measurement": "CC50", "setting": "[1]; read-out: LC50", "value": "> 100", "unit": "µM"},
      {"measurement": "GI50", "setting": "[2]", "value": 1.47, "unit": "µM"},
      {"measurement": "TGI", "setting": "[2]", "value": 4.15, "unit": "µM"},
      {"measurement": "Percent Growth", "setting": "[2]; Log10 Concentration −4.0", "value": "−41", "unit": "%"},
      {"measurement": "Percent Growth", "setting": "[2]; Log10 Concentration −5.0", "value": "−42", "unit": "%"},
      {"measurement": "Percent Growth", "setting": "[2]; Log10 Concentration −6.0", "value": 68, "unit": "%"},
      {"measurement": "Percent Growth", "setting": "[2]; Log10 Concentration −7.0", "value": 98, "unit": "%"},
      {"measurement": "Percent Growth", "setting": "[2]; Log10 Concentration −8.0", "value": 98, "unit": "%"},
      {"measurement": "CC50", "setting": "[2]; read-out: LC50", "value": "> 100", "unit": "µM"},
      {"measurement": "GI50", "setting": "[3]", "value": 0.452, "unit": "µM"},
      {"measurement": "TGI", "setting": "[3]", "value": 2.19, "unit": "µM"},
      {"measurement": "Percent Growth", "setting": "[3]; Log10 Concentration −4.0", "value": "−64", "unit": "%"},
      {"measurement": "Percent Growth", "setting": "[3]; Log10 Concentration −5.0", "value": "−56", "unit": "%"},
      {"measurement": "Percent Growth", "setting": "[3]; Log10 Concentration −6.0", "value": 29, "unit": "%"},
      {"measurement": "Percent Growth", "setting": "[3]; Log10 Concentration −7.0", "value": 90, "unit": "%"},
      {"measurement": "Percent Growth", "setting": "[3]; Log10 Concentration −8.0", "value": 95, "unit": "%"},
      {"measurement": "CC50", "setting": "[3]; read-out: LC50", "value": 8.43, "unit": "µM"},
      {"measurement": "GI50", "setting": "[4]", "value": 1.24, "unit": "µM"},
      {"measurement": "TGI", "setting": "[4]", "value": 3.41, "unit": "µM"},
      {"measurement": "Percent Growth", "setting": "[4]; Log10 Concentration −4.0", "value": "−97", "unit": "%"},
      {"measurement": "Percent Growth", "setting": "[4]; Log10 Concentration −5.0", "value": "−53", "unit": "%"},
      {"measurement": "Percent Growth", "setting": "[4]; Log10 Concentration −6.0", "value": 60, "unit": "%"},
      {"measurement": "Percent Growth", "setting": "[4]; Log10 Concentration −7.0", "value": 82, "unit": "%"},
      {"measurement": "Percent Growth", "setting": "[4]; Log10 Concentration −8.0", "value": 100, "unit": "%"},
      {"measurement": "CC50", "setting": "[4]; read-out: LC50", "value": 9.42, "unit": "µM"},
      {"measurement": "GI50", "setting": "[5]", "value": 0.529, "unit": "µM"},
      {"measurement": "TGI", "setting": "[5]", "value": 2.3, "unit": "µM"},
      {"measurement": "Percent Growth", "setting": "[5]; Log10 Concentration −4.0", "value": "−73", "unit": "%"},
      {"measurement": "Percent Growth", "setting": "[5]; Log10 Concentration −5.0", "value": "−58", "unit": "%"},
      {"measurement": "Percent Growth", "setting": "[5]; Log10 Concentration −6.0", "value": 33, "unit": "%"},
      {"measurement": "Percent Growth", "setting": "[5]; Log10 Concentration −7.0", "value": 94, "unit": "%"},
      {"measurement": "Percent Growth", "setting": "[5]; Log10 Concentration −8.0", "value": 100, "unit": "%"},
      {"measurement": "CC50", "setting": "[5]; read-out: LC50", "value": 8.08, "unit": "µM"},
      {"measurement": "GI50", "setting": "[6]", "value": 1.68, "unit": "µM"},
      {"measurement": "TGI", "setting": "[6]", "value": 4.99, "unit": "µM"},
      {"measurement": "Percent Growth", "setting": "[6]; Log10 Concentration −4.0", "value": "−82", "unit": "%"},
      {"measurement": "Percent Growth", "setting": "[6]; Log10 Concentration −5.0", "value": "−32", "unit": "%"},
      {"measurement": "Percent Growth", "setting": "[6]; Log10 Concentration −6.0", "value": 74, "unit": "%"},
      {"measurement": "Percent Growth", "setting": "[6]; Log10 Concentration −7.0", "value": 92, "unit": "%"},
      {"measurement": "Percent Growth", "setting": "[6]; Log10 Concentration −8.0", "value": 95, "unit": "%"},
      {"measurement": "CC50", "setting": "[6]; read-out: LC50", "value": 22.9, "unit": "µM"},
      {"measurement": "GI50", "setting": "[7]", "value": 2.19, "unit": "µM"},
      {"measurement": "TGI", "setting": "[7]", "value": 16.5, "unit": "µM"},
      {"measurement": "Percent Growth", "setting": "[7]; Log10 Concentration −4.0", "value": "−65", "unit": "%"},
      {"measurement": "Percent Growth", "setting": "[7]; Log10 Concentration −5.0", "value": 18, "unit": "%"},
      {"measurement": "Percent Growth", "setting": "[7]; Log10 Concentration −6.0", "value": 67, "unit": "%"},
      {"measurement": "Percent Growth", "setting": "[7]; Log10 Concentration −7.0", "value": 64, "unit": "%"},
      {"measurement": "Percent Growth", "setting": "[7]; Log10 Concentration −8.0", "value": 70, "unit": "%"},
      {"measurement": "CC50", "setting": "[7]; read-out: LC50", "value": 66.3, "unit": "µM"},
      {"measurement": "GI50", "setting": "[8]", "value": 2.94, "unit": "µM"},
      {"measurement": "TGI", "setting": "[8]", "value": 9.83, "unit": "µM"},
      {"measurement": "Percent Growth", "setting": "[8]; Log10 Concentration −4.0", "value": "−95", "unit": "%"},
      {"measurement": "Percent Growth", "setting": "[8]; Log10 Concentration −5.0", "value": "−1", "unit": "%"},
      {"measurement": "Percent Growth", "setting": "[8]; Log10 Concentration −6.0", "value": 95, "unit": "%"},
      {"measurement": "Percent Growth", "setting": "[8]; Log10 Concentration −7.0", "value": 101, "unit": "%"},
      {"measurement": "Percent Growth", "setting": "[8]; Log10 Concentration −8.0", "value": 99, "unit": "%"},
      {"measurement": "CC50", "setting": "[8]; read-out: LC50", "value": 33.3, "unit": "µM"},
      {"measurement": "GI50", "setting": "[9]", "value": 0.466, "unit": "µM"},
      {"measurement": "TGI", "setting": "[9]", "value": 1.8, "unit": "µM"},
      {"measurement": "Percent Growth", "setting": "[9]; Log10 Concentration −4.0", "value": "−61", "unit": "%"},
      {"measurement": "Percent Growth", "setting": "[9]; Log10 Concentration −5.0", "value": "−73", "unit": "%"},
      {"measurement": "Percent Growth", "setting": "[9]; Log10 Concentration −6.0", "value": 25, "unit": "%"},
      {"measurement": "Percent Growth", "setting": "[9]; Log10 Concentration −7.0", "value": 100, "unit": "%"},
      {"measurement": "Percent Growth", "setting": "[9]; Log10 Concentration −8.0", "value": 100, "unit": "%"},
      {"measurement": "CC50", "setting": "[9]; read-out: LC50", "value": 5.79, "unit": "µM"},
      {"measurement": "GI50", "setting": "[10]", "value": 5.61, "unit": "µM"},
      {"measurement": "TGI", "setting": "[10]", "value": 20.8, "unit": "µM"},
      {"measurement": "Percent Growth", "setting": "[10]; Log10 Concentration −4.0", "value": 79, "unit": "%"},
      {"measurement": "Percent Growth", "setting": "[10]; Log10 Concentration −5.0", "value": 37, "unit": "%"},
      {"measurement": "Percent Growth", "setting": "[10]; Log10 Concentration −6.0", "value": 90, "unit": "%"},
      {"measurement": "Percent Growth", "setting": "[10]; Log10 Concentration −7.0", "value": 94, "unit": "%"},
      {"measurement": "Percent Growth", "setting": "[10]; Log10 Concentration −8.0", "value": 96, "unit": "%"},
      {"measurement": "CC50", "setting": "[10]; read-out: LC50", "value": 56.3, "unit": "µM"},
      {"measurement": "GI50", "setting": "[11]", "value": 3.44, "unit": "µM"},
      {"measurement": "TGI", "setting": "[11]", "value": 12.9, "unit": "µM"},
      {"measurement": "Percent Growth", "setting": "[11]; Log10 Concentration −4.0", "value": "−91", "unit": "%"},
      {"measurement": "Percent Growth", "setting": "[11]; Log10 Concentration −5.0", "value": 11, "unit": "%"},
      {"measurement": "Percent Growth", "setting": "[11]; Log10 Concentration −6.0", "value": 95, "unit": "%"},
      {"measurement": "Percent Growth", "setting": "[11]; Log10 Concentration −7.0", "value": 97, "unit": "%"}
    ]}
  ]
}
